In US10913757B2, “Hydroxycinnamic derivatives, methods and uses thereof” (UNIVERSIDADE DO PORTO, priority 2016, dated 2021):
pIC50: −log10 of the molar value.

How the values were obtained:
[1] = ABTS radical cation scavenging activity (TAC assay); assay type: biochemical; conditions: ethanol
Text: (§1) In an embodiment, the AntiOxCINs antioxidant ranking activity hierarchy was established by in vitro non-cell methods. The selected total antioxidant capacity (TAC) assays (DPPH, ABTS and GO) involved the spectrophotometric measurement of the radical absorbance decrease as a result of an in situ radical deactivation by an antioxidant. Compounds with higher antioxidant activity display lower IC50 values. […] This decrease was attenuated/ameliorated by the increment of the spacer length and/or the introduction of additional hydroxyl group in the aromatic ring.
(§2) The radical scavenging activity of AntiOxCINs was evaluated by means of total antioxidant capacity assays based on DPPH., ABTS.^+ and GO. radicals. All these methods involved the spectrophotometric measurement of the absorbance decrease resulting from radical (DPPH., ABTS.^+ or GO.) deactivation with an antioxidant. The results were expressed in IC50, which is defined as the minimum antioxidant concentration necessary to reduce the amount of radical by 50%. Antioxidant assays were performed in a multiplate reader (Powerwave XS Microplate Reader) of Bio-Tech instruments.
In an embodiment, the ABTS.^+ scavenging activity was evaluated as follows: ethanolic solutions of the test compounds with increasing concentrations (range between 10 μM and 500 μM) were prepared. ABTS.^+ radical cation solution was obtained by addition of 150 mM aqueous potassium persulfate solution (163 μL) to 10 mL of 7 mM aqueous ABTS solution followed by storage in the dark at room temperature for 16 h (2.45 mM final concentration). The solution was then diluted in ethanol to reach the absorbance of 0.72±0.02. After addition of the compound (20 μL), in triplicate, to ABTS.^+ solution (180 μL) the spectrophotometric measurement was carried out each minute over 15 minutes. […] Dose-response curves were established for the determination of IC50 values. Data are means±SEM of three independent experiments.

[2] = GO radical scavenging activity (TAC assay); assay type: biochemical; conditions: ethanol, absorbance 428 nm
Text: as §1, §2
In an embodiment, the GO′ scavenging activity was evaluated as follows: solutions of test compounds with concentrations from 5 μM to 75 μM were prepared in ethanol. An ethanolic solution of 5 mM GO′ was prepared and diluted to reach the absorbance of 1.00±0.02 at 428 nm. The addition (20 μL) in triplicate of compound solution to GO. solution (180 μL) was followed by absorbance measurement at 428 nm over 30 minutes, in the dark, at room temperature. […] Dose-response curves were established for the determination of IC50 values. Data are means±SEM of three independent experiments.

[3] = Redox properties by differential pulse and cyclic voltammetry; assay type: physicochemical; conditions: for reversibility of the oxidation reaction: cyclic voltammetry, physiological pH; for Ep (redox potential): physiological pH (7.4), voltammetry
Protocol: In an embodiment, and as an example, AntiOxCINs redox properties were evaluated (Table 1). Redox potentials are correlated with the ability of an antioxidant to donate a hydrogen atom and/or an electron to a free radical.
However, for pyrogallol derivatives (AntiOxCIN4, AntiOxCIN5 and AntiOxCIN7), a significant decrease in redox potentials was observed (Ep=0.034-0.057 V) (Table 1).
The voltammograms presented a diffusion peak and an adsorption post-peak at a more anodic potential correspondent to the oxidation of dissolved and adsorbed forms of the compounds, respectively. The oxidation waves can be related to the oxidation process of the pyrogallol moiety. The cyclic voltammograms also show the presence of two overlapped anodic peaks. The anodic peaks appeared to correspond to irreversible processes as any distinct reduction wave was not seen on the cathodic sweep. The existence of the additional phenolic group in the pyrogallol systems, when compared with the catechol ones, seems to influence the stabilization of the semiquinone intermediate and in turn the oxidative mechanism.
In an embodiment, the electrochemical analytical data was obtained using a computer controlled potentiostat Autolab PGSTAT302N (Metrohm Autolab, Utrecht, Netherlands). Generally, cyclic voltammetry (CV) data was acquired at a scan rate of 50 mVs^−1. Differential pulse voltammetry (DPV) results were acquired at a step potential of 4 mV, pulse amplitude of 50 mV and scan rate of 8 mVs^−1. The electrochemical signals were monitored by the General Purpose Electrochemical System (GPES) version 4.9, software package. All electrochemical experiments were performed at room temperature in an electrochemical cell that was placed in a Faraday cage in order to minimize the contribution of background noise to the analytical signal.
In an embodiment, the process of evaluation of AntiOxCINs redox properties was conducted as follows: stock solutions of each compound (10 mM) were prepared by dissolving the appropriate amount in ethanol. The voltammetric working solutions were prepared in the electrochemical cell, at a final concentration of 0.1 mM. The […] supporting electrolyte was prepared by diluting […] to 100 mL. Voltammetric data was acquired in a three-electrode system consisting of a glassy carbon electrode (GCE, d=2 mm) as working electrode, a counter electrode of platinum wire and a saturated Ag/AgCl reference electrode. In an embodiment, the evaluation of AntiOxCINs lipophilic properties was performed as follows: the electrochemical cell was a four-electrode system with arrays of micro liquid-liquid interfaces (μlTIES) containing two Ag/AgCl reference electrodes and two counter electrodes of Pt, one in each phase. The microporous membrane was sealed with a fluorosilicone sealant (Dow Corning 730) onto a glass cylinder which was filled with 4.0 mL of the aqueous phase, where the aliquots of AntiOxCINs solutions were added. The membrane was then immersed into the organic phase contained in the cell. The organic phase reference solution (a 2 mM BTPPACI+2 mM NaCl aqueous solution) was mechanically stabilized The aqueous supporting electrolyte solution was a Tris-HCl buffer 10 mM pH 7.0.

Ep (redox potential) [3] [V] | SMILES | pIC50 [1] | pIC50 [2] | reversibility of the oxidation reaction [3] | Ep (redox potential) ([3]; listed as AntiOxClN2, methanesulfonate) [V] | Ep (redox potential) ([3]; listed as AntiOxClN3) [V] | Ep (redox potential) ([3]; listed as AntiOxClN4, methanesulfonate) [V] | Ep (redox potential) ([3]; listed as AntiOxClN5, methanesulfonate) [V] | Ep (redox potential) ([3]; listed as AntiOxClN6, methanesulfonate) [V] | Ep (redox potential) ([3]; listed as AntiOxClN7, methanesulfonate) [V]
– | CS(=O)(=O)[O-].O=C(/C=C/c1ccc(O)c(O)c1)NCCCCCC[P+](c1ccccc1)(c1ccccc1)c1ccccc1 [AntiOxCIN2, (E)-(6-(3-(3,4-dihydroxyphenyl)prop-2-enamido)hexyl)triphenylphosphonium methanesulfonate] | 4.52 | 5.39 | reversible reaction | 0.164 | – | – | – | – | –
– | CS(=O)(=O)[O-].O=C(/C=C/c1ccc(O)c(O)c1)NCCCCCCCC[P+](c1ccccc1)(c1ccccc1)c1ccccc1 [AntiOxCIN3, (E)-(8-(3-(3,4-dihydroxyphenyl)acrylamido)octyl)triphenylphosphoniummethanesulfonate] | 4.55 | 5.55 | reversible reaction | – | 0.170 | – | – | – | –
– | CS(=O)(=O)[O-].O=C(/C=C/c1cc(O)c(O)c(O)c1)NCCCCCC[P+](c1ccccc1)(c1ccccc1)c1ccccc1 [AntiOxCIN4, (E)-(6-(3-(3,4,5-trihydroxyphenyl)prop-2-enamido)hexyl)triphenylphosphonium methanesulfonate] | 4.91 | 5.51 | irreversible oxidation reaction | – | – | 0.034 | – | – | –
– | CS(=O)(=O)[O-].O=C(/C=C/c1cc(O)c(O)c(O)c1)NCCCCCCCC[P+](c1ccccc1)(c1ccccc1)c1ccccc1 [AntiOxCIN5, (E)-(8-(3-(3,4,5-trihydroxyphenyl)acrylamido)octyl)triphenylphosphonium methanesulfonate] | 5.06 | 5.64 | irreversible oxidation reaction | – | – | – | 0.046 | – | –
– | CS(=O)(=O)[O-].O=C(/C=C/c1ccc(O)c(O)c1)NCCCCCCCCCC[P+](c1ccccc1)(c1ccccc1)c1ccccc1 [AntiOxCIN6, (E)-(10-(3-(3,4-dihydroxyphenyl)acrylamido)decyl)triphenylphosphonium methanesulfonate] | 4.63 | 5.57 | reversible reaction | – | – | – | – | 0.174 | –
– | CS(=O)(=O)[O-].O=C(/C=C/c1cc(O)c(O)c(O)c1)NCCCCCCCCCC[P+](c1ccccc1)(c1ccccc1)c1ccccc1 [AntiOxCIN7, (E)-(10-(3-(3,4,5-trihydroxyphenyl)acrylamido)decyl)triphenylphosphonium methanesulfonate] | 5.12 | 5.60 | irreversible oxidation reaction | – | – | – | – | – | 0.057
0.168 | O=C(O)/C=C/c1ccc(O)c(O)c1 [Caffeic acid, caffeic acid, reference compound] | 4.75 | 5.47 | reversible reaction | – | – | – | – | – | –
